From ChEMBL document CHEMBL4842322, “A naphthalimide-polyamine conjugate preferentially accumulates in hepatic carcinoma metastases as a lysosome-targeted antimetastatic agent” (Eur J Med Chem, 2021)

Key:
Type in all cases: functional, cell-based
[1] = tested on: MCF7; experiment: Cytotoxicity against human MCF7 cells assessed as inhibition of cell growth incubated for 48 hrs by MTT assay; details: MCF7, 48 h
[2] = tested on: A549; experiment: Cytotoxicity against human A549 cells assessed as inhibition of cell growth incubated for 48 hrs by MTT assay; details: A549, 48 h
[3] = tested on: MDA-MB-231; experiment: Cytotoxicity against human MDA-MB-231 cells assessed as inhibition of cell growth incubated for 48 hrs by MTT assay; details: MDA-MB-231, 48 h
[4] = tested on: Huh-7; experiment: Cytotoxicity against human Huh-7 cells assessed as inhibition of cell growth incubated for 48 hrs by MTT assay; details: Huh-7, 48 h
[5] = tested on: HepG2; experiment: Cytotoxicity against human HepG2 cells assessed as inhibition of cell growth incubated for 48 hrs by MTT assay; details: HepG2, 48 h
[6] = tested on: A549; experiment: Cytotoxicity against cisplatin-resistant human A549 cells assessed as inhibition of cell growth incubated for 48 hrs by MTT assay; details: A549, 48 h

CCCNCCCN1C(=O)c2cccc3cc(NC(=O)CN)cc(c23)C1=O
IC50 [1]: > 30 µM
IC50 [2]: > 30 µM
IC50 [3]: > 30 µM
IC50 [4]: 10.1 µM
IC50 [5]: > 30 µM
IC50 [6]: > 30 µM

CCCNCCCNCCCNCCCN1C(=O)c2cccc3cc(NC(=O)CN)cc(c23)C1=O
IC50 [1]: > 30 µM
IC50 [2]: > 30 µM
IC50 [3]: > 30 µM
IC50 [4]: 14.9 µM
IC50 [5]: > 30 µM
IC50 [6]: > 30 µM

CCCNCCCNCCCNCCCN1C(=O)c2cccc3c(NC(=O)CN)ccc(c23)C1=O
IC50 [1]: > 30 µM
IC50 [2]: > 30 µM
IC50 [3]: > 30 µM
IC50 [4]: 5.39 µM
IC50 [5]: > 30 µM
IC50 [6]: > 30 µM

CN(C)CCN1C(=O)c2cccc3cc(NC(=O)CN)cc(c23)C1=O
IC50 [1]: > 30 µM
IC50 [2]: > 30 µM
IC50 [3]: > 30 µM
IC50 [4]: 12.7 µM
IC50 [5]: > 30 µM
IC50 [6]: > 30 µM

CCCNCCCNCCCN1C(=O)c2cccc3cc(NC(=O)CN)cc(c23)C1=O
IC50 [1]: > 30 µM
IC50 [2]: > 30 µM
IC50 [3]: > 30 µM
IC50 [4]: 7.54 µM
IC50 [5]: > 30 µM
IC50 [6]: > 30 µM
